Test results taken from patent EP4813986A1, “COMPOUND FOR REDUCING SERUM CONCENTRATION OF RBP4, AND USE” (Heronova Pharmaceuticals, LLC, priority 2023, dated 2025).

Key:
in vitro = details: microsomes, pH 7.4
Description: Phosphate buffer preparation: Weigh 7.098 g of disodium hydrogen phosphate, add 500 mL of pure water and dissolve by ultrasonication to obtain a disodium hydrogen phosphate solution. Weigh 3.400 g of potassium dihydrogen phosphate, add 250 mL of pure water and dissolve by ultrasonication to obtain a potassium dihydrogen phosphate solution. The disodium hydrogen phosphate solution and potassium dihydrogen phosphate solution were mixed and adjusted to pH 7.4+0.2.
10 mM NADPH preparation: Weigh an appropriate amount of NADPH (reduced coenzyme II), freshly prepare a 10 mM working solution with phosphate buffer, and the final concentration is 1 mM.
Incubation system preparation: Prepare the suspension into the incubation plate according to Table 5, and pre-incubate in a 37°C water bath for 10 min. Table 5 Incubation System Preparation
2 µL of positive control or test compound working solution was added to 358 µL of the incubation system, mixed uniformly by vortexing, and all samples were prepared in duplicate. 40 µL of 10 mM NADPH was added to the system, mixed uniformly by low-speed vortexing, and the reaction timing was started. […] Centrifuge at 4700 rpm, 4°C for 15 minutes to precipitate proteins. Transfer 100 µL of the supernatant to the sample plate, add 100 µL of pure water and mix well for UPLC-MS/MS analysis. Table 6 Liver Microsome Stability Results

[1] = Pharmacokinetic test, single oral dose, plasma LC-MS/MS; assay type: in vivo; details: mouse, single oral dose 10 mg/kg, male ICR mice
Description: Test Method: Three ICR mice (male) were used for each compound, with five groups in total. Mice were treated with a single oral dose of 10 mg/kg or 5 mg/kg. For each mouse, blood samples were collected at 0.25, 0.5, 1, 2, 4, and 8 hours after administration. Whole blood samples were placed in test tubes containing EDTA-K2, inverted up and down several times, and then centrifuged at 6000 rpm, 4°C for 15 minutes to obtain plasma. The concentration of the compound in plasma samples was determined using the LC-MS/MS method. Table 4 Pharmacokinetic Results of Different Compounds

RBP4 = biological target: T1, RBP4 (Mus musculus, UniProt Q00724); assay: Plasma RBP4 content detection test (ELISA) after single oral dose; assay type: in vivo, ICR male mice; details: 5 mg/kg oral, maximum reduction within 5 to 24 hours vs 0-hour value
T1 construct: from tissue; host or cells: plasma of ICR male mice
Description: Test Method: ICR male mice aged 7 to 8 weeks were adaptively fed for 3 to 7 days and randomly divided into groups (4 mice per group), and fasted for 12 hours before the test. Orbital venous blood samples were collected and plasma was separated before administration on the test day (0-hour value as the initial content). Then, test compounds at a dose of 1 mg/kg or 5 mg/kg were orally administered (vehicle: 5% DMSO + 10% cyclodextrin), and vehicle (5% DMSO + 10% cyclodextrin) was orally administered as a control group. Orbital venous blood samples were collected and plasma was separated at 5, 8, 10, 12, and 24 hours after compound administration. The RBP4 content in plasma samples was detected using Mouse RBP4 (Retinol Binding Protein 4, Plasma) ELISA Kit (immunoway, KE1574), the reduction rate was calculated, and the maximum reduction rate within 5 to 24 hours was selected. Reduction rate of RBP4 content in mouse plasma at different sampling time points = (Initial RBP4 content - RBP4 content at sampling point) / Initial RBP4 content. Table 2 Plasma RBP4 Reduction Levels of Different Compounds

half-life at 1 µM (in vitro; human): > 180 min
microsomal CLint at 1 µM (in vitro; human): < 7.44 µL/min/mg
half-life at 1 µM (in vitro; mouse): 43 min
microsomal CLint at 1 µM (in vitro; mouse): 32.2 µL/min/mg
AUC(0-t) [1]: 13.3 ng·h/mL
Cmax ([1]; read-out: peak concentration Cmax): 15.2 ng/mL
Tmax ([1]; read-out: peak time Tmax): 30 min
Maximum Plasma RBP4 Reduction Rate (5 mg/kg dose) (RBP4): 11%
Structure (SMILES): CC(C(N)=O)C(=O)N1CCc2c(C(=O)N3CC=C(c4cccc(F)c4C(F)(F)F)CC3)n[nH]c2C1 (centres unmarked) [Compound 22]
